Here are results for 16 compounds from PubChem BioAssay (NCI).

Values joined by “and” are separate entries in the source; they are usually repeats but may differ in a detail not shown here. Equal values may be shown once.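 Each compound was tested at five concentrations against cells in 96-well plates for 48 hours. The concentration for 50% growth inhibition is given as GI50. TGI: concentration producing complete growth inhibition.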

What all share (assay): NCI-60 cell line screen, 48 h
Experiment [1] has as its system HL-60(TB) leukemia.
The subject of experiment [2] is LXFL 529 NSCLC.
The test system of experiment [3] is RPMI-8226 leukemia.
Experiment [4] relates to SNB-75 CNS.
The test system of experiment [5] is DMS 114 small cell lung.
For experiment [6], the system named is HCT-15 colon.
In experiment [7] the test system is SK-MEL-2 melanoma.
The test system of experiment [8] is RXF 393 renal.
Experiment [9] relates to T-47D breast.
In experiment [10] the test system is BT-549 breast.

Turning to `COc1c(C)n(CCO)ccc1=O`, the TGI in [1], in [2], in [3], in [4], in [5] and in experiment [6] was greater than 100 µM in each case. The TGI in [7] and in [8] was greater than 100 µM each time.
On to `CCOC(=O)NC(=O)c1cn(C(CC)COC(=O)NCCCCCCNC(=O)OCC(CC)n2cc(C(=O)NC(=O)OCC)c(=O)[nH]c2=O)c(=O)[nH]c1=O` (stereo not drawn), for which the TGI in [1], in [2], in experiment [3], in experiment [4], in experiment [5] and in [6] was greater than 100 µM each time. Further, the TGI in [7] and in experiment [8] was greater than 100 µM in each case.
For the compound `Cc1cc2c(c(C(N)=O)c1C)-c1ccccc1C2=O`, the TGI in experiment [1], in experiment [2], in experiment [3], in [4], in experiment [5] and in experiment [6] was greater than 100 µM each time. The TGI in experiment [7] and in experiment [8] was greater than 100 µM each time.
Consider `COc1cccc(/C=N/[N-]C(=O)c2ccncc2)c1[O-].COc1cccc(/C=N/[N-]C(=O)c2ccncc2)c1[O-].[O]=[U](=[O])([OH2+])[OH2+]`, for which the GI50 in experiment [1] was 2.43 µM; in experiment [2], greater than 33.7 µM; in experiment [3], 4.4 µM; in experiment [4], 12.9 µM; in experiment [5], 3.3 µM; in experiment [6] it was 4.77 µM. In addition, the values for the GI50 in [7] and in experiment [8] were 19.8 µM and 6.11 µM, respectively. Moreover, the TGI was greater than 100 µM in [1]; greater than 100 µM in [2]; 48 µM in experiment [3]; 62.6 µM in experiment [4]; 12.5 µM in experiment [5]; greater than 100 µM in [6]. Moreover, the TGI in experiment [7] is greater than 74 µM; in [8], 25.3 µM.
Consider `Nc1c(-c2ccccc2-c2c(N)[n+]([O-])c3ccccc3[n+]2[O-])[n+]([O-])c2ccccc2[n+]1[O-]`, for which the TGI was greater than 31.3 µM in experiment [1]; greater than 100 µM in experiment [2]; 63.4 µM in experiment [3]; greater than 100 µM in experiment [4]; 27.2 µM in experiment [5]; greater than 100 µM in [6]. The TGI in experiment [7] and in experiment [8] was greater than 100 µM each time.
With `CN(C)C(=S)SSC(=S)N(C)C`, the TGI is 70.6 µM and 9.41 µM and 10.8 µM in experiment [1]; greater than 100 µM in experiment [2]; 49.1 µM and 16.1 µM and 58.9 µM in experiment [3]; 38.5 µM and > 100 µM in experiment [4]; 41.7 µM and 39 µM and 88.2 µM in [9]; 30.6 µM and 31.3 µM and 28.4 µM in [10]. The TGI in [5] was 17.4 µM; in experiment [6], 29.4 µM and > 100 µM and 31 µM; in experiment [7], > 100 µM and 39.4 µM; in experiment [8], 31 µM and > 62.6 µM and 32.6 µM. Further, the GI50 is 15.2 µM in experiment [4]; 15.9 µM in experiment [9]; 13.4 µM and 47.9 µM and 13.5 µM in experiment [6]; 34.2 µM and 57 µM and 17 µM in experiment [7]; 16.5 µM and 38.6 µM and 16.6 µM in experiment [8].
Consider `COC(=O)/C([Se]c1c(C)cc(C)cc1C)=C(/[Se]c1c(C)cc(C)cc1C)C(=O)OC`, for which the TGI in experiment [1], in experiment [2], in [3], in experiment [4], in [5] and in experiment [6] was greater than 100 µM in each case. Moreover, the TGI in [7] and in experiment [8] was greater than 100 µM each time.
With `CC(C(=O)c1ccc(Cl)cc1)/C(=N/NC(=O)NN)C(=O)Nc1cccc(C(F)(F)F)c1` (stereo not drawn), the TGI in [1], in [2], in [3], in [4], in experiment [5] and in experiment [6] was greater than 100 µM throughout. The TGI in experiment [7] and in experiment [8] was greater than 100 µM throughout.
On to `CC(C)CCC[C@@H](C)C1CCC2[C@@H]3CC=C4C[C@@H](C(=O)NCCN(C)C)CC[C@]4(C)C3CC[C@@]21C` (stereo partly drawn), for which the TGI in experiment [1] was greater than 100 µM; in experiment [2], greater than 100 µM; in experiment [3], 94 µM; in [4], greater than 100 µM; in experiment [5] it was 38.1 µM; in [6], 53.7 µM. Moreover, the TGI is 23.6 µM in [7] and greater than 100 µM in experiment [8].
For `CCNC(=O)/C(=C/c1ccc(OC)cc1)c1cc(OC)c(OC)c(OC)c1`, the TGI in experiment [1] is 21.9 µM; in [2], greater than 100 µM; in experiment [3], greater than 100 µM; in [4], greater than 73.4 µM; in [9], greater than 100 µM; in experiment [10], greater than 100 µM. In addition, the TGI in experiment [5] is greater than 57 µM; in experiment [6], greater than 100 µM; in [7] it was greater than 100 µM; in experiment [8] it was 11.2 µM.
In the case of `O=c1[nH]cnc(NC2C=C(CO)C(O)C2O)c1[N+](=O)[O-]` (stereo not drawn), the TGI was greater than 51.7 µM in [1]; greater than 100 µM in [2]; greater than 71.3 µM in experiment [3]; greater than 100 µM in experiment [4]; greater than 84.7 µM in experiment [5]; greater than 54.7 µM in experiment [6]. In addition, the TGI in experiment [7] and in experiment [8] was greater than 100 µM throughout.
Consider `CC1=C(C#N)C(=O)CC(c2ccc(Cl)cc2)N(C)N1` (stereo not drawn), for which the TGI in experiment [1], in [2], in experiment [3], in [4], in experiment [5] and in [6] was greater than 100 µM throughout. The TGI in [7] and in [8] was greater than 100 µM in each case.
In the case of `Nc1nc(-c2ccc(Cl)c([N+](=O)[O-])c2)cs1`, the TGI is greater than 100 µM in [1]; greater than 100 µM in [2]; greater than 100 µM in experiment [3]; 92.7 µM in experiment [4]; greater than 100 µM in experiment [5]; greater than 100 µM in experiment [6]. In addition, the TGI in [7] is greater than 100 µM; in [8], 90.1 µM.
Turning to `CCOP(=O)(OCC)C(C(=O)OC)C(=O)C(=O)Nc1ccc(Cl)cc1Cl` (stereo not drawn), the TGI in experiment [1], in experiment [2], in [3], in experiment [4], in experiment [5] and in [6] was greater than 100 µM each time. For the same compound, the TGI in experiment [7] and in experiment [8] was greater than 100 µM each time.
Regarding `ClC(Cl)=C1C(=C(Cl)Cl)C(Cl)(Cl)C1(Cl)Cl`, the GI50 in experiment [1] is 0.259 µM. Also, the TGI was 0.66 µM and 2.11 µM in experiment [1]; 2.47 µM in [2]; 3.69 µM in experiment [3]; 13.5 µM in experiment [4]; 23.6 µM in experiment [9]; 13.4 µM in experiment [10]. Besides, the TGI in experiment [5] is 2.33 µM; in [6], 3.56 µM; in experiment [7], 3.32 µM; in experiment [8] it was 3.26 µM.
Turning to `O=C(CC(=O)C1CCOC1=O)C(=O)Nc1cccc(Cl)c1` (stereo not drawn), the TGI in experiment [1], in experiment [2], in experiment [3], in experiment [4], in [5] and in [6] was greater than 100 µM throughout. Besides, the TGI in [7] and in experiment [8] was greater than 100 µM each time.
